# Test results as given in PubChem BioAssay (NCI).
#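 Assay format: 96-well plates, 48-hour exposure. At the TGI there is no net growth.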
# Tests used:
# Test in all cases: inhibition of tumour cell growth, NCI panel, 48 h
# [1] = test system: MDA-MB-435
# [2] = test system: LOX IMVI melanoma
# [3] = test system: OVCAR-4 ovarian
# [4] = test system: UO-31 renal
# [5] = test system: NCI/ADR-RES ovarian
# [6] = test system: SF-268 CNS
# [7] = test system: T-47D breast
# [8] = test system: SNB-19 CNS
# [9] = test system: RXF 393 renal
# [10] = test system: OVCAR-5 ovarian
# [11] = test system: K-562 leukemia
# [12] = test system: SK-MEL-5 melanoma
# [13] = test system: IGROV1 ovarian
# [14] = test system: SNB-75 CNS
# [15] = test system: MDA-MB-231 breast
# [16] = test system: ACHN renal
# [17] = test system: MDA-N
# [18] = test system: COLO 205 colon
# [19] = test system: HS 578T breast
# [20] = test system: EKVX NSCLC
# [21] = test system: HT29 colon
# [22] = test system: SK-MEL-28 melanoma
# [23] = test system: NCI-H460 lung
# [24] = test system: OVCAR-8 ovarian
# [25] = test system: CAKI-1 renal
# [26] = test system: RPMI-8226 leukemia
# [27] = test system: CCRF-CEM leukemia
# [28] = test system: MOLT-4 leukemia
# [29] = test system: A549 NSCLC
# [30] = test system: HL-60(TB) leukemia
# [31] = test system: UACC-257 melanoma
# [32] = test system: HCC-2998 colon
# [33] = test system: 786-0 renal
# [34] = test system: MCF7 breast
# [35] = test system: TK-10 renal
# [36] = test system: KM12 colon
# [37] = test system: UACC-62 melanoma
# [38] = test system: M14 melanoma
# [39] = test system: NCI-H23 lung
# [40] = test system: U251 CNS
# [41] = test system: SK-OV-3 ovarian
# [42] = test system: BT-549 breast
# [43] = test system: DU-145 prostate
# [44] = test system: SK-MEL-2 melanoma
# [45] = test system: SF-295 CNS
# [46] = test system: SN12C renal
# [47] = test system: PC-3 prostate
# [48] = test system: HOP-92 NSCLC
# [49] = test system: SW-620 colon
# [50] = test system: HCT-116 colon
# [51] = test system: HOP-62 NSCLC
# [52] = test system: OVCAR-3 ovarian
# [53] = test system: A498 renal
# [54] = test system: HCT-15 colon
# [55] = test system: MALME-3M melanoma
# [56] = test system: NCI-H522 lung
structure (smiles),measurement,setting,value
COc1cc(/C=C2\N=C(c3ccccc3)N(c3nc4ccc(Sc5ccccc5)cc4[nH]3)C2=O)ccc1O,TGI,[1],23.2 µM
same,TGI,[2],> 100 µM
same,TGI,[3],> 100 µM
same,TGI,[4],> 100 µM
same,TGI,[5],61 µM
same,TGI,[6],> 100 µM
same,TGI,[7],> 100 µM
same,TGI,[8],> 100 µM
same,TGI,[9],> 100 µM
same,TGI,[10],> 100 µM
same,TGI,[11],37.3 µM
same,TGI,[12],28.1 µM
same,TGI,[13],> 100 µM
same,TGI,[14],> 100 µM
same,TGI,[15],60.4 µM
same,TGI,[16],86 µM
same,TGI,[17],28.5 µM
same,TGI,[18],32.7 µM
same,TGI,[19],> 100 µM
same,TGI,[20],> 100 µM
same,TGI,[21],38.7 µM
same,TGI,[22],75.3 µM
same,TGI,[23],50 µM
same,TGI,[24],> 100 µM
same,TGI,[25],> 100 µM
same,TGI,[26],47.8 µM
same,TGI,[27],55.3 µM
same,TGI,[28],69.4 µM
same,TGI,[29],> 100 µM
same,TGI,[30],31.2 µM
same,TGI,[31],47.1 µM
same,TGI,[32],29.3 µM
same,TGI,[33],49 µM
same,TGI,[34],50.7 µM
same,TGI,[35],53.5 µM
same,TGI,[36],57.9 µM
same,TGI,[37],53.3 µM
same,TGI,[38],33.6 µM
same,TGI,[39],> 100 µM
same,TGI,[40],43.7 µM
same,TGI,[41],> 100 µM
same,TGI,[42],53.7 µM
same,TGI,[43],> 100 µM
same,TGI,[44],30.6 µM
same,TGI,[45],94.7 µM
same,TGI,[46],97.5 µM
same,TGI,[47],> 100 µM
same,TGI,[48],> 100 µM
same,TGI,[49],> 100 µM
same,TGI,[50],47.3 µM
same,TGI,[51],> 100 µM
same,TGI,[52],> 100 µM
same,TGI,[53],77.1 µM
same,TGI,[54],> 100 µM
same,TGI,[55],44.1 µM
same,TGI,[56],48.3 µM
